What was measured:
[1] = target: Human platelet cyclic AMP phosphodiesterase (PDE3) (Homo sapiens, UniProt Q14432); assay: In vitro assay for measuring cAMP PDE-3 inhibitory activity; type: biochemical; details: 10 min at 30° C., n=3
Description: Three assays each were performed for each of five test compound concentrations, the mean of the determinations (n=3) at each concentration was plotted, and IC50 values were determined graphically.

[2] = target: T1, human recombinant beta-2 receptors expressed in CHO-WT21 cells (Homo sapiens, UniProt P07550); assay: Radioligand binding for β2-receptor affinity ([125I](−)Iodocyanopindolol); details: at a concentration of 100 nM, read-out: inhibition of β1-adrenergic binding (as printed, β2-receptor assay)
T1 construct: expressed in transfected cells; host or cells: CHO-WT21 cells
T1 sequence (P07550 whole entry): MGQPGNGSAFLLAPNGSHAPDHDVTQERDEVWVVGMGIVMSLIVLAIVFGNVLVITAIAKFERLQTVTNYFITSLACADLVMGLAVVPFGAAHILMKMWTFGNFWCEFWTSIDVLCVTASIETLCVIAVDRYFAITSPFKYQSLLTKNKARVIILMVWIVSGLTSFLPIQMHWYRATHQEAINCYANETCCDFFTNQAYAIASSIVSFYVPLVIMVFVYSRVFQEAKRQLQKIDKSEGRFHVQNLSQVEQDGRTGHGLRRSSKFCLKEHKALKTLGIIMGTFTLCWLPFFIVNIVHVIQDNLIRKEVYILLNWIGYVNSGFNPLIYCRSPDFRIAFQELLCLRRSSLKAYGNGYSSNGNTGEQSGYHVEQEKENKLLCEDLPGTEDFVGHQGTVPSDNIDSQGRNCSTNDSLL
Description: (§1) β2-Adrenergic receptor binding was measured in human recombinant beta-2 receptors expressed in CHO-WT21 cells, using [^125I] (−) Iodocyanopindolol (2000 Ci/mmol) as the radioligand, as described in Kalaria et al. (1998) and Minneman et al. (1979), supra. Compounds 17d, 21, 31b, 46a, and 46b each inhibited greater than 25% β1-adrenergic binding at a concentration of 100 nM.

[3] = target: T2, human recombinant beta-1 receptors expressed in CHO-REX16 cells (Homo sapiens, UniProt P08588); assay: Radioligand binding for β1-receptor affinity ([125I](−)Iodocyanopindolol); details: at a concentration of 100 nM; read-out: inhibition of β1-adrenergic binding
T2 construct: expressed in transfected cells; host or cells: CHO-REX16 cells
T2 sequence (P08588 whole entry): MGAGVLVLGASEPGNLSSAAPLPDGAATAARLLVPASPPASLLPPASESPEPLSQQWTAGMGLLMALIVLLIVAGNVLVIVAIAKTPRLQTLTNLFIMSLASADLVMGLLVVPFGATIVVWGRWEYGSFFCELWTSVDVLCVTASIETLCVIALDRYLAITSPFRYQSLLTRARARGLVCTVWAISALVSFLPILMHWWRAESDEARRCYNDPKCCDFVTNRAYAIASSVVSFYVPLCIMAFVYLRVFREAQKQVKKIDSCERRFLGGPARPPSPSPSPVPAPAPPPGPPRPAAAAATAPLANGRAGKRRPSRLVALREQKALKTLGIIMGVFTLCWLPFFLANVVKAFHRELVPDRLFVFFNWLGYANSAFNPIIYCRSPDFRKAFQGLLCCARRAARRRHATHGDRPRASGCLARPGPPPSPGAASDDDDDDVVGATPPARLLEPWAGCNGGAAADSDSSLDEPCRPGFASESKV
Description: as §1, with “β1-Adrenergic” for “β2-Adrenergic”, “beta-1” for “beta-2”, “CHO-REX16” for “CHO-WT21”, “al., J. Neurochem. 53: 1772-81 (1998),” for “al. (1998)”, “al., Mol. Pharmacol. 16: 34-46 (1979).” for “al. (1979), supra.”

Chain of Human platelet cyclic AMP phosphodiesterase (PDE3) (Q14432 whole entry): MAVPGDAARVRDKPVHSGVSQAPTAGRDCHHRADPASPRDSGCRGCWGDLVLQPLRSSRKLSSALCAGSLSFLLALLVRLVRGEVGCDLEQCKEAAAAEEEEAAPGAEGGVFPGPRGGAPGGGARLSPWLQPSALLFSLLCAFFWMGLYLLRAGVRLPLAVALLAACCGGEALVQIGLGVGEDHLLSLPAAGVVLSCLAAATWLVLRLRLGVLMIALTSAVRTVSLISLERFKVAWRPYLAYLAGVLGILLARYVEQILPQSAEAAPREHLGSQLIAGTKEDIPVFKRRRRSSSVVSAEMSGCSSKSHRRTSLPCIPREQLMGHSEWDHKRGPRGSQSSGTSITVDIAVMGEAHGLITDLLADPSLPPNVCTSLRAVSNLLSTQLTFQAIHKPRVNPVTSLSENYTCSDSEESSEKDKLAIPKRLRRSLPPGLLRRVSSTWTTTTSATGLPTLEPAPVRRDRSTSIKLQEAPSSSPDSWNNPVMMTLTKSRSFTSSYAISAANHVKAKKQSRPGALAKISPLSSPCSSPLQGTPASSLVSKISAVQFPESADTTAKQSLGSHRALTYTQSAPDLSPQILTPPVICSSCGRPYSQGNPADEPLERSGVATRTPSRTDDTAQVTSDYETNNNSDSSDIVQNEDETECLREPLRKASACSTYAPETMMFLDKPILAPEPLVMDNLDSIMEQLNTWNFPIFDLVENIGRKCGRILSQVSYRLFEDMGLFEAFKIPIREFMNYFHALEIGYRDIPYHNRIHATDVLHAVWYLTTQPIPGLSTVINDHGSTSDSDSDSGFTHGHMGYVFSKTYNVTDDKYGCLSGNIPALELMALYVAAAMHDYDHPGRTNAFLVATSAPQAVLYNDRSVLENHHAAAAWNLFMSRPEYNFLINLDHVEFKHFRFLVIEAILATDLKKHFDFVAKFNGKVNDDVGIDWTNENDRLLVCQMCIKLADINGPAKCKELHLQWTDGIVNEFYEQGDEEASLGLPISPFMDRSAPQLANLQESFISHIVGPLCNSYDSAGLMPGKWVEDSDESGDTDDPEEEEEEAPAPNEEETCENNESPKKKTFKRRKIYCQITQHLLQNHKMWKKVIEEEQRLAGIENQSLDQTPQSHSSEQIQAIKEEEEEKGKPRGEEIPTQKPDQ

| Compound | IC50 [1] [µM] | inhibition at 0.1 µM [2] [%] | inhibition at 0.1 µM [3] [%] |
| --- | --- | --- | --- |
| CC(C)NC[C@H](O)COc1ccc(CCC(=O)NCCNC(=O)COc2ccc(C3=NNC(=O)CC3)cc2Cl)cc1 [Compound 7] | < 0.1 |  |  |
| CC(C)NCC(O)COc1ccc(COCCCOc2ccc(C3=NNC(=O)CC3)cc2Cl)cc1 (stereo not shown) [Compound 31a, 6-(3-Chloro-4-{3-[4-(2-hydroxy-3-isopropylamino-propoxy)-benzyloxy]-propoxy}-phenyl)-4,5-dihydro-2H-pyridazin-3-one] | < 1 |  |  |
| CC(C)(C)NC[C@H](O)COc1ccc(CCNC(=O)COc2ccc(C3=NNC(=O)CC3)cc2)cc1 [Compound 21, N-{2-[4-((S)-3-tert-butylamino-2-hydroxy-propoxy)-phenyl]-ethyl}-2-[4-(6-oxo-1,4,5,6-tetrahydro-pyridazin-3-yl)-phenoxy]-acetamide] | < 1 | > 25 | > 25 |
| CC(C)NC[C@H](O)COc1ccc(C(=O)NCCNC(=O)COc2ccc(C3=NNC(=O)CC3)cc2Cl)cc1 [Compound 12a] | < 1 |  |  |
| CC(C)(C)NCC(O)COc1ccc(CNC(=O)COc2ccc(C3=NNC(=O)CC3)cc2Cl)cc1 (stereo not shown) [Compound 17b, N-[4-(3-tert-Butylamino-2-hydroxy-propoxy)-benzyl]-2-[2-chloro-4-(6-oxo-1,4,5,6-tetrahydro-pyridazin-3-yl)-phenoxy]-acetamide] | < 1 |  |  |
| CC(C)NCC(O)COc1ccc(CCOc2ccc(C3=NNC(=O)CC3)cc2Cl)cc1 (stereo not shown) [Compound 37a, 6-(3-Chloro-4-{2-[4-(2-hydroxy-3-isopropylamino-propoxy)-phenyl]-ethoxy}-phenyl)-4,5-dihydro-2H-pyridazin-3-one] | < 0.1 |  |  |
| CC(C)(C)NC[C@H](O)COc1ccc(C(=O)NCCNC(=O)COc2ccc(C3=NNC(=O)CC3)cc2Cl)cc1 [Compound 13, 4-((S)-3-tert-Butylamino-2-hydroxy-propoxy)-N-(2-{2-[2-chloro-4-(6-oxo-1,4,5,6-tetrahydropyridazin-3-yl)-phenoxy]-acetylamino}-ethyl)-benzamide] | < 1 |  |  |
| CC(C)NCC(O)COc1ccc(CNC(=O)COc2ccc(C3=NNC(=O)CC3)cc2Cl)cc1 (stereo not shown) [Compound 17a, 2-[2-Chloro-4-(6-oxo-1,4,5,6-tetrahydro-pyridazin-3-yl)-phenoxy]-N-[4-(2-hydroxy-3-isopropylamino-propoxy)-benzyl]-acetamide] | < 1 |  |  |
| CC(C)(C)NCC(O)COc1ccc(COCCCOc2ccc(C3=NNC(=O)CC3)cc2Cl)cc1 (stereo not shown) [Compound 31b, 6-(4-{3-[4-(3-tert-Butylamino-2-hydroxy-propoxy)-benzyloxy]-propoxy}-3-chloro-phenyl)-4,5-dihydro-2H-pyridazin-3-one] | < 0.1 | > 25 | > 25 |

The remaining lines, values ahead:

| IC50 [1] [µM] | inhibition at 0.1 µM [2] [%] | inhibition at 0.1 µM [3] [%] | Compound |
| --- | --- | --- | --- |
| < 0.1 |  |  | CC(C)(C)NCC(O)COc1ccc(CCOc2ccc(C3=NNC(=O)CC3)cc2Cl)cc1 (stereo not shown) [Compound 37b, 6-(4-{2-[4-(3-tert-Butylamino-2-hydroxy-propoxy)-phenyl]-ethoxy}-3-chloro-phenyl)-4,5-dihydro-2H-pyridazin-3-one] |
| < 0.1 | > 25 | > 25 | CC(C)(C)NCC(O)COc1ccc(CCNC(=O)COc2ccc(C3=NNC(=O)CC3)cc2Cl)cc1 (stereo not shown) [Compound 17d, N-{2-[4-(3-tert-Butylamino-2-hydroxy-propoxy)-phenyl]-ethyl}-2-[2-chloro-4-(6-oxo-1,4,5,6-tetrahydro-pyridazin-3-yl)-phenoxy]-acetamide] |
| < 0.1 |  |  | CC(C)NCC(O)COc1ccc(CCNC(=O)COc2ccc(C3=NNC(=O)CC3)cc2Cl)cc1 (stereo not shown) [Compound 17c, 2-[2-Chloro-4-(6-oxo-1,4,5,6-tetrahydro-pyridazin-3-yl)-phenoxy]-N-{2-[4-(2-hydroxy-3-isopropylamino-propoxy)-phenyl]-ethyl}-acetamide] |
| < 0.1 | > 25 | > 25 | CC(C)NC[C@H](O)COc1ccc(CCOCCCOc2ccc(C3=NNC(=O)CC3)cc2Cl)cc1 [Compound 46a, 6-[3-Chloro-4-(3-{2-[4-((S)-2-hydroxy-3-isopropylamino-propoxy)-phenyl]-ethoxy}-propoxy)-phenyl]-4,5-dihydro-2H-pyridazin-3-one] |
| < 0.1 | > 25 | > 25 | CC(C)(C)NC[C@H](O)COc1ccc(CCOCCCOc2ccc(C3=NNC(=O)CC3)cc2Cl)cc1 [Compound 46b, 6-[4-(3-{2-[4-((S)-3-tert-Butylamino-2-hydroxy-propoxy)-phenyl]-ethoxy}-propoxy)-3-chloro-phenyl]-4,5-dihydro-2H-pyridazin-3-one] |
| < 0.1 |  |  | CC(C)NC[C@H](O)COc1ccc(CC(=O)NCCNC(=O)COc2ccc(C3=NNC(=O)CC3)cc2Cl)cc1 [Compound 12b, N-(2-{2-[2-Chloro-4-(6-oxo-1,4,5,6-tetrahydropyridazin-3-yl)-phenoxy]-acetylamino}-ethyl)-2-(4-((S)-2-hydroxy-3-isopropylamino-propoxy)-phenyl]-acetamide] |
